Laboratory results reported in PMC9460261, “Need for a Standardized Translational Drug Development Platform: Lessons Learned from the Repurposing of Drugs for COVID-19” (Microorganisms, 2022).
Read-outs that look alike come from different tables or passages of the source.

What was measured:
SARS-CoV-2 [1] = assay type: in vivo, Syrian hamster; settings: doses, frequency, duration as in Table 1
[2] = female, LGV Golden Syrian, hamster, in vivo
in vitro = settings: African green monkey, Selectivity Index (Vero cells)
SARS-CoV-2 in Vero cells [3] = experiment: microbe, parasite or virus in culture; settings: Severe acute respiratory syndrome coronavirus 2, Vero
[4] = tested on: SARS-CoV-2 in Calu-3 cells; experiment: microbe, parasite or virus in culture; settings: Severe acute respiratory syndrome coronavirus 2, Calu-3, read-out: Calu-3 cells Average IC50
SARS-CoV-2 in Vero cells [5] = settings: for IC50: * one replicate only
[6] = tested on: SARS-CoV-2 in Calu-3 cells; settings: for IC50: read-out: Calu-3 cells Average IC50, * one replicate only
SARS-CoV-2 [7] = settings: cited from earlier work; for EC50: read-out: SARS-CoV-2 EC50
[8] = Population PK model from satellite PK studies in hamster
[9] = read-out: VERO cells Average IC50, With Pgp pump inhibitor, 2 μM CP-100356, * one replicate only
[10] = read-out: VERO cells Average IC50, Without Pgp pump inhibitor, * one replicate only
[11] = read-out: VERO cells Average IC50, With Pgp pump inhibitor, 2 μM CP-100356
[12] = read-out: VERO cells Average IC50, Without Pgp pump inhibitor
[13] = hamster of the study's median weight (80-131 g)

Row | Compound | Activity in SARS-CoV-2 Hamster Model (SARS-CoV-2 [1]) | IC50 (SARS-CoV-2 in Vero cells [3]; [9]) [µM] | IC50 (SARS-CoV-2 in Vero cells [3]; [10]) [µM] | IC50 [4] [µM] | Activity In Vitro; Potency EC50 or IC50 < 10 µM; Vero Cells (SARS-CoV-2 in Vero cells [5]) | Activity In Vitro; Potency EC50 or IC50 < 10 µM; Calu-3 Cells [6] | IC50 (SARS-CoV-2 in Vero cells [5]; [11]) [µM] | IC50 (SARS-CoV-2 in Vero cells [5]; [12]) [µM] | IC50 [6] [µM] | further results
1 | CC(=O)Oc1ccccc1C(=O)Nc1ncc([N+](=O)[O-])s1 [Nitazoxanide, nitazoxanide] | No | 3.4 | 6.3 | 13.6 |  |  |  |  |  | CL/F, elimination clearance, population estimate (%RSE) [2]: 626 (11.9) mL/h; VC/F, central volume of distribution, population estimate (%RSE) [2]: 188 (38.6) mL; selectivity ratio (in vitro; With Pgp pump inhibitor): > 14.7; selectivity ratio (in vitro; Without Pgp pump inhibitor): > 7.9
2 | CC(=O)CCCCn1c(=O)c2c(ncn2C)n(C)c1=O [Pentoxyfilline, pentoxyfilline] |  | > 50 | > 50 | > 50 | No (Potency EC50 or IC50 < 10 µM) | No (Potency EC50 or IC50 < 10 µM) |  |  |  | 
3 | CCCN(CCC)S(=O)(=O)c1ccc(C(=O)O)cc1 [Probenecid, probenecid] |  | > 50 | > 50 | > 50 | No (Potency EC50 or IC50 < 10 µM) | No (Potency EC50 or IC50 < 10 µM) |  |  |  | EC50 (SARS-CoV-2 [7]; host cell NHBE): 0.0013 µM; EC50 (SARS-CoV-2 [7]; host cell Vero E6, ref 54): 0.75 µM
4 | CC1(C)C(=O)N(c2ccc(C#N)c(C(F)(F)F)c2F)C(=S)N1c1ccc(CCCc2ncco2)nc1 [Proxalutamide, proxalutamide] |  |  |  |  | No (Potency EC50 or IC50 < 10 µM) | No (Potency EC50 or IC50 < 10 µM) | 21.5 | 30.3 | 14.5 | Selectivity Index (Vero cells), With Pgp pump inhibitor (SARS-CoV-2 in Vero cells [5]; T: toxicity observed): < 2.3; Selectivity Index (Vero cells), Without Pgp pump inhibitor (SARS-CoV-2 in Vero cells [5]; T: toxicity observed): < 1.6; EC50 (SARS-CoV-2 [7]; host cell LNCaP Cells): 0.097 µM
5 | CC(C)c1nc(CN(C)C(=O)N[C@H](C(=O)N[C@@H](Cc2ccccc2)C[C@H](O)[C@H](Cc2ccccc2)NC(=O)OCc2cncs2)C(C)C)cs1 [Ritonavir, ritonavir] |  |  |  |  |  |  |  |  |  | EC50 (SARS-CoV-2 [7]; host cell Vero E6, ref 31): > 100 µM; EC50 (SARS-CoV-2 [7]; host cell Vero E6, ref 32): > 50 µM; EC50 (SARS-CoV-2 [7]; host cell VeroE6/TMPRSS2): 8.6 µM
6 | O=C(Nc1ncc([N+](=O)[O-])s1)c1ccccc1O [Tizoxanide, tizoxanide] |  | 2.3 | 7.2 | 14.3 |  |  |  |  |  | selectivity ratio (in vitro; With Pgp pump inhibitor, T: toxicity observed): > 21.7; selectivity ratio (in vitro; Without Pgp pump inhibitor, T: toxicity observed): > 7
7 | NCCC(Oc1ccc(C(F)(F)F)cc1)c1ccccc1 (stereo not drawn) [norfluoxetine] |  |  |  |  |  |  |  |  |  | FFP, fraction undergoing first-pass metabolism, population estimate (%RSE) ([8]; hamster 97 g): 0.323 (11); CL/F, elimination clearance, population estimate (%RSE) [8, 13]: 93.3 (6.3) mL/h; VC/F, central volume of distribution, population estimate (%RSE) [8, 13]: 2740 (5.7) mL
8 | bemnifosbuvir | No ^d |  |  |  | No (Potency EC50 or IC50 < 10 µM) | No (Potency EC50 or IC50 < 10 µM) | > 25 | > 25 | > 50 | Activity in SARS-CoV-2 Hamster Model (SARS-CoV-2 [1]; listed as bemnifosbuvir (AT-527)): no activity; EC90 (SARS-CoV-2 [7]; host cell HAE, AT-511, free base of AT-527 used): 0.47 µM
9 | ivermectin | No |  |  |  | Yes (Potency EC50 or IC50 < 10 µM) | Yes (Potency EC50 or IC50 < 10 µM) | 1.1 | 4.3 | 8.9 | IC50 (SARS-CoV-2 [7]; Vero-hSLAM cells, read-out: IC50, medium): 2.8 µM; EC50 (SARS-CoV-2 [7]; host cell Vero E6, ref 22): 1.7 µM; EC50 (SARS-CoV-2 [7]; host cell Vero E6, ref 38): 2.3 µM; EC50 (SARS-CoV-2 [7]; host cell not given): 2 µM; Effect of SC administration on F ([8]; compared to PO administration): 0.656 (15.7); Effect of SC administration on KA ([8]; compared to PO administration): 2.05 (50.0); Effect of SC administration on MTT ([8]; compared to PO administration): -0.85 (5.61); MTT, mean transit time, population estimate (%RSE) ([8]; hamster 120 g): 0.478 (7.42) h; CL/F, elimination clearance, population estimate (%RSE) [8, 13]: 13.3 (0.160) mL/h; KA, absorption rate constant, population estimate (%RSE) [8, 13]: 0.531 (8.35) h-1
